Active and inactive are the calls of the source.
What was measured:
[1] = test system: HEK293; experiment: cells; assay type: functional, cell-based; details: Homo sapiens
[2] = target: T1, Nuclear receptor subfamily 0 group B member 1 (Homo sapiens, UniProt P51843); experiment: Luminescence-based cell-based high throughput dose response assay for inhibitors of the orphan nuclear receptor subfamily 0, group B, member 1 (DAX1; NR0B1). [Related pubchem assays (depositor defined):AID504766, AID504790]; assay type: functional
T1 sequence (P51843 whole entry): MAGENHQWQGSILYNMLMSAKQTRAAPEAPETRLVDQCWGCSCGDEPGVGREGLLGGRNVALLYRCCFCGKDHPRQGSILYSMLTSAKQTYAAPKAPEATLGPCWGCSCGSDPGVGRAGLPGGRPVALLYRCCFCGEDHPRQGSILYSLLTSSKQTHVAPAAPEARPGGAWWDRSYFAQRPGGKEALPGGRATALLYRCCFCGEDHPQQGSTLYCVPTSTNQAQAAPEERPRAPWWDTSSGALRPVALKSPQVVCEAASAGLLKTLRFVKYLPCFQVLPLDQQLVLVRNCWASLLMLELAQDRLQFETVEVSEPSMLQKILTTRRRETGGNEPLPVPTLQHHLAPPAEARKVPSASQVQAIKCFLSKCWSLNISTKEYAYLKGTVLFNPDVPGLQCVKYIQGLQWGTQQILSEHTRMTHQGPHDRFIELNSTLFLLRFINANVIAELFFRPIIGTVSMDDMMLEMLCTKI

[3] = bead-based luminescence quenchers, dual-tagged ARNT – biochemical, AlphaScreen, cherry-pick, artefact control for ARNT-TACC3 interaction inhibitor project, dose response (AID 651705); assay type: functional;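 further: AlphaScreen bead proximity signal that flags compounds interfering with the detection technology; potency reflects signal decrease which marks the compound as an assay artifact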
[4] = test system: HEK293; experiment: EBV LMP1 TES2 canonical NF-kB signalling blockers – cell-based, HEK293, luciferase, cherry-pick, dose response (AID 588343); assay type: functional; details: Homo sapiens
[5] = target: T2, Caspase-3 (Homo sapiens, UniProt P42574); assay type: functional;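 further: Dose-response selectivity test against caspase-3 for candidate inhibitors of sentrin-specific proteases (SENPs)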
T2 sequence (P42574 whole entry): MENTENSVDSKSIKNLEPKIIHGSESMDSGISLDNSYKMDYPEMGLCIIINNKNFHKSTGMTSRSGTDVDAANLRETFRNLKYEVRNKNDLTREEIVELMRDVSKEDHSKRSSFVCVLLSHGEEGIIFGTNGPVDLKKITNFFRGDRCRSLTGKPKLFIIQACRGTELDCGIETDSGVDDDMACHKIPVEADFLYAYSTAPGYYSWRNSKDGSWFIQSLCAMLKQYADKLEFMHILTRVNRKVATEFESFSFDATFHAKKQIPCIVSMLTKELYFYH

[6] = target: T3, Sentrin-specific protease 7 (Homo sapiens, UniProt Q9BQF6); assay type: functional;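 further: Luminescence-based dose-response confirmation of ultra-high-throughput screening hits, measuring inhibition of SENP7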
T3 sequence (Q9BQF6 whole entry): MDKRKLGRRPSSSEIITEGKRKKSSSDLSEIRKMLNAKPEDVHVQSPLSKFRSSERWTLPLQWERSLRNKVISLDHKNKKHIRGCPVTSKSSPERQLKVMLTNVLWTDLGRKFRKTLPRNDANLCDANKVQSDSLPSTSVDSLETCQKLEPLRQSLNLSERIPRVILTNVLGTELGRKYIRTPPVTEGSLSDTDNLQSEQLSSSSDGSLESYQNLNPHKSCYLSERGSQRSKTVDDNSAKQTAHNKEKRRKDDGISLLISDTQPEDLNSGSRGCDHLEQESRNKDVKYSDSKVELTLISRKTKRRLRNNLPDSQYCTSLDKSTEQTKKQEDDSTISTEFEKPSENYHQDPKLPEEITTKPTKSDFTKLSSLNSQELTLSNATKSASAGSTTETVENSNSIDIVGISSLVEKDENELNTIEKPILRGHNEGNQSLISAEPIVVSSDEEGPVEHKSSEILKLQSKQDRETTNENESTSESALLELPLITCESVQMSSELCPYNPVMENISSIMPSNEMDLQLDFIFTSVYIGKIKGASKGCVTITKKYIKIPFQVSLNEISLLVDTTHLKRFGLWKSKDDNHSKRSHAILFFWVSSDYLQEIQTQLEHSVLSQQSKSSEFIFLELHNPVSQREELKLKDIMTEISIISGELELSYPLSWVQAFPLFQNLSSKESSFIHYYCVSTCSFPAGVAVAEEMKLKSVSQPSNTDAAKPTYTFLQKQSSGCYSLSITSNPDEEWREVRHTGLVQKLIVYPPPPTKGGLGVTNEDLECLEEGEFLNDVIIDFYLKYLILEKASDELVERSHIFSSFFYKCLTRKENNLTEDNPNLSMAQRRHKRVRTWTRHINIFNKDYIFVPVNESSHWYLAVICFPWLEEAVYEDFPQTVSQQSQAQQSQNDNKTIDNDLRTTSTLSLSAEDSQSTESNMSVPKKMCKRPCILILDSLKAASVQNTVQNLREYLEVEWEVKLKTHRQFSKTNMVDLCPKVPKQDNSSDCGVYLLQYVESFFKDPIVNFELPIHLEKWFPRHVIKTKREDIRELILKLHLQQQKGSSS

[7] = target: T4, Sentrin-specific protease 8 (Homo sapiens, UniProt Q96LD8); assay type: functional;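 further: luminescence read-out of SENP8 inhibition, dose-response confirmation following an ultra-high-throughput screen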
T4 sequence (Q96LD8 whole entry): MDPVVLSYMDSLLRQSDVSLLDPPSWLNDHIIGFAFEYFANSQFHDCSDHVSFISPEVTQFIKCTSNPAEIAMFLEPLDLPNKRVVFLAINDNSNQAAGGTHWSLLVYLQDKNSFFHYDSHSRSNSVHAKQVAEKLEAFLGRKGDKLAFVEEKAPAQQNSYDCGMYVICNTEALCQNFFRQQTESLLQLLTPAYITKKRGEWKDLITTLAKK

[8] = target: T5, Sentrin-specific protease 6 (Homo sapiens, UniProt Q9GZR1); assay type: functional;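 further: Luminescence-based dose-response confirmatory assay of SENP6 inhibition, following up an ultra-high-throughput screen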
T5 sequence (Q9GZR1 whole entry): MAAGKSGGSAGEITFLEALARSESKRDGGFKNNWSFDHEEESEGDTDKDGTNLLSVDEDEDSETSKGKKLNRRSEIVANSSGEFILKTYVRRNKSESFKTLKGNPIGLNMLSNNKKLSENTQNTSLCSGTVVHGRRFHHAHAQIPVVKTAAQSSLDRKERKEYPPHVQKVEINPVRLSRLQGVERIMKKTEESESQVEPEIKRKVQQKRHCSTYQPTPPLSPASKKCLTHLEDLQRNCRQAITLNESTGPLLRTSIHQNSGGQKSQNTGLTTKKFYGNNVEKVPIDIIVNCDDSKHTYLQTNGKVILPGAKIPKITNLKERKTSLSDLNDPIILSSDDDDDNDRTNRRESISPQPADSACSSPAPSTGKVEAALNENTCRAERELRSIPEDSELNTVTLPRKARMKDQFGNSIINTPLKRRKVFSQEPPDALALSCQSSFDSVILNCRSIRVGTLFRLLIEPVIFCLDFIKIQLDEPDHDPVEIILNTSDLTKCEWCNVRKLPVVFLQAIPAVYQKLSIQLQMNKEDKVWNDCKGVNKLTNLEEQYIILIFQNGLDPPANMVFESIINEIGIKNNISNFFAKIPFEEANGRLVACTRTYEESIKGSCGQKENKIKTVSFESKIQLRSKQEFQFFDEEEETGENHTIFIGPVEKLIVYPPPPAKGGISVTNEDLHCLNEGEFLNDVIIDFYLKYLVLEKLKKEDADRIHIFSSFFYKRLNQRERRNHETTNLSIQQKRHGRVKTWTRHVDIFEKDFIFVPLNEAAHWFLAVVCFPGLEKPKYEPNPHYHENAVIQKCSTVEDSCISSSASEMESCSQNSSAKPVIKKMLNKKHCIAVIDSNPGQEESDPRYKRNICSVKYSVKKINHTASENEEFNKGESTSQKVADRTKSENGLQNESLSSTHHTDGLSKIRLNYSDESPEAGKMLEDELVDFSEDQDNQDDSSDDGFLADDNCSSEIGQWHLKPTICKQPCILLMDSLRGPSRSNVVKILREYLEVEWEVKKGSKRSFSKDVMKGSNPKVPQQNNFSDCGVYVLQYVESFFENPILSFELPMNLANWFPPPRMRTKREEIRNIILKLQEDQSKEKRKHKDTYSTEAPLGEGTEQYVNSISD

[9] = target: T6, CAAX prenyl protease 2 (Saccharomyces cerevisiae S288c, UniProt Q03530); assay type: biochemical
T6 sequence (Q03530 whole entry): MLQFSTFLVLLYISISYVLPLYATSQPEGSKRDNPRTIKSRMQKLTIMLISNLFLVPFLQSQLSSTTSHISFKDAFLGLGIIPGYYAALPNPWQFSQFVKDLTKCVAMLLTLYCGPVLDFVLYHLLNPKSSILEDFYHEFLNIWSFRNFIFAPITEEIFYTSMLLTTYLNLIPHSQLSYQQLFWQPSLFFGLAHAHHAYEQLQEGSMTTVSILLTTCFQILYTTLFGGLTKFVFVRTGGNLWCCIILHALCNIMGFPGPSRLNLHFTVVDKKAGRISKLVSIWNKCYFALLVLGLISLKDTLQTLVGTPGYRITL

[10] = target: Trypsin (Sus scrofa, UniProt P00761); experiment: trypsin protease activity blockade – biochemical, quenched peptide fluorescence, cherry-pick, selectivity assay for Rce1 protease inhibitor project, dose response (AID 488789)
[11] = target: T7, CAAX prenyl protease 2 (Homo sapiens, UniProt Q9Y256); experiment: inhibition of Ras-converting CAAX protease Rce1 – biochemical, yeast membranes, quenched-peptide fluorescence, cherry-pick, dose response (AID 588849)
T7 sequence (Q9Y256 whole entry): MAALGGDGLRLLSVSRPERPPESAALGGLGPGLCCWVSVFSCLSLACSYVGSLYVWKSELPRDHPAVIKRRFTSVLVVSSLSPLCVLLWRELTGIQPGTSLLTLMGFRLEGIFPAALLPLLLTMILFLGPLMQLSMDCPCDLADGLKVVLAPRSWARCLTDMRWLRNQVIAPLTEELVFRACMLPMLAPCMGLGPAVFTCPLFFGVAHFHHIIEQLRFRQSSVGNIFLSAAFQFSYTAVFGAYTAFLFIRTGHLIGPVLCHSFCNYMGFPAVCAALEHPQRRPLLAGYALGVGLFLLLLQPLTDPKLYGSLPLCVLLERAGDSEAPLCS

[12] = target: T8, Carboxy-terminal domain RNA polymerase II polypeptide A small phosphatase 1 (Homo sapiens, UniProt Q9GZU7); experiment: CTDSP1 inhibitors, concentration-response, biochemical, absorbance readout, ultra-high-throughput screen actives (AID 540297); assay type: functional
T8 sequence (Q9GZU7 whole entry): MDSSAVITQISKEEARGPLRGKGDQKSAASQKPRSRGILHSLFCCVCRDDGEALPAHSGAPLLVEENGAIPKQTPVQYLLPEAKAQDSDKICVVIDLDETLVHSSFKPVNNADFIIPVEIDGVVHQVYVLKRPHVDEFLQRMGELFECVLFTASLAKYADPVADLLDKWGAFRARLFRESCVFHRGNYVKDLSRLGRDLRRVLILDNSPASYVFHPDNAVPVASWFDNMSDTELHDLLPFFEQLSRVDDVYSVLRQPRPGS

[13] = HEK-293T viability loss after treatment – luminescence, T-cell screen hits, cytotoxicity control for TCR NF-kB inhibitor project, dose response (AID 489026); assay type: functional, cell-based;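 further: cells exposed to compound about 14 hours before the viability readout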

Chain of Trypsin (P00761 whole entry): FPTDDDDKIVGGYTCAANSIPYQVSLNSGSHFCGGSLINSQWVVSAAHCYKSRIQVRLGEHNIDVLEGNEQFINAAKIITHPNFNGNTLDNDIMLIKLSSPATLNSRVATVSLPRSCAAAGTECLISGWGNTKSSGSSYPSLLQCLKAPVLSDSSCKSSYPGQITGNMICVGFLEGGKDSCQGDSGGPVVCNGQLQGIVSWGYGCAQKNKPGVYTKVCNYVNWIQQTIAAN

## COc1ccc(C2SCC(C(=O)O)N2C(C)=O)cc1OC (centres undefined)
[1]
  IC50: > 67.5 µM (inactive)
[2]
  IC50: > 67.5 µM (inactive)

## Cc1nc2ncccn2c1-c1csc(Nc2ccccc2)n1
[3]
  AC50: 93.5 µM (active)
[4]
  AC50: 28.1 µM (active)

## Cc1cc(NC(=O)CSc2nc(N)c(NC(=O)c3ccco3)c(O)n2)no1
[1]
  IC50: > 67.6 µM (inactive)
[2]
  IC50: > 67.6 µM (inactive)

## Clc1ccc(-c2nnc(NC3=NCCCCC3)o2)cc1
[5]
  IC50: 15 µM (active)
[6]
  IC50: 15.4 µM (active)
[7]
  IC50: 29.8 µM (active)
[4]
  AC50: 1.84 µM (active)
[8]
  IC50: 30.1 µM (active)

## Nc1c(C(=O)NCCN2CCOCC2)c2nc3ccccc3nc2n1-c1cccc(F)c1
[9]
  AC50: 15 µM (active)
[10]
  AC50: 12.4 µM (active)
[11]
  AC50: 5.43 µM (active)

## COc1cc2nc(NC(=O)c3ccco3)sc(=O)c2cc1OC
[12]
  IC50: 10.5 µM (active)
[13]
  IC50: > 80 µM (inactive)
[4]
  AC50: 6.84 µM (active)

## Cc1ccc(CN2CCN(/N=C/c3ccccc3)CC2)cc1
[1]
  IC50: > 67.6 µM (inactive)
[2]
  IC50: > 67.6 µM (inactive)

Source: ChEMBL document CHEMBL1201862, “PubChem BioAssay data set” (2004)
